# pIC50: −log10 of the molar value.
# Tests used:
# MDA-MB-231 = assay: Antiproliferative activity against human MDA-MB-231 cells incubated for 72 hrs by CCK8 assay; type: functional, cell-based; conditions: Homo sapiens, MDA-MB-231, 72 h
# [1] = target: T1, DNA topoisomerase 2-alpha (Homo sapiens, UniProt P11388); assay: Inhibition of human topoisomerase 2-alpha assessed as reduction in relaxation of pBR322 DNA at 100 uM measured after 30 mins by agarose gel electrophoresis method relative to control
# T1 sequence (P11388 whole entry): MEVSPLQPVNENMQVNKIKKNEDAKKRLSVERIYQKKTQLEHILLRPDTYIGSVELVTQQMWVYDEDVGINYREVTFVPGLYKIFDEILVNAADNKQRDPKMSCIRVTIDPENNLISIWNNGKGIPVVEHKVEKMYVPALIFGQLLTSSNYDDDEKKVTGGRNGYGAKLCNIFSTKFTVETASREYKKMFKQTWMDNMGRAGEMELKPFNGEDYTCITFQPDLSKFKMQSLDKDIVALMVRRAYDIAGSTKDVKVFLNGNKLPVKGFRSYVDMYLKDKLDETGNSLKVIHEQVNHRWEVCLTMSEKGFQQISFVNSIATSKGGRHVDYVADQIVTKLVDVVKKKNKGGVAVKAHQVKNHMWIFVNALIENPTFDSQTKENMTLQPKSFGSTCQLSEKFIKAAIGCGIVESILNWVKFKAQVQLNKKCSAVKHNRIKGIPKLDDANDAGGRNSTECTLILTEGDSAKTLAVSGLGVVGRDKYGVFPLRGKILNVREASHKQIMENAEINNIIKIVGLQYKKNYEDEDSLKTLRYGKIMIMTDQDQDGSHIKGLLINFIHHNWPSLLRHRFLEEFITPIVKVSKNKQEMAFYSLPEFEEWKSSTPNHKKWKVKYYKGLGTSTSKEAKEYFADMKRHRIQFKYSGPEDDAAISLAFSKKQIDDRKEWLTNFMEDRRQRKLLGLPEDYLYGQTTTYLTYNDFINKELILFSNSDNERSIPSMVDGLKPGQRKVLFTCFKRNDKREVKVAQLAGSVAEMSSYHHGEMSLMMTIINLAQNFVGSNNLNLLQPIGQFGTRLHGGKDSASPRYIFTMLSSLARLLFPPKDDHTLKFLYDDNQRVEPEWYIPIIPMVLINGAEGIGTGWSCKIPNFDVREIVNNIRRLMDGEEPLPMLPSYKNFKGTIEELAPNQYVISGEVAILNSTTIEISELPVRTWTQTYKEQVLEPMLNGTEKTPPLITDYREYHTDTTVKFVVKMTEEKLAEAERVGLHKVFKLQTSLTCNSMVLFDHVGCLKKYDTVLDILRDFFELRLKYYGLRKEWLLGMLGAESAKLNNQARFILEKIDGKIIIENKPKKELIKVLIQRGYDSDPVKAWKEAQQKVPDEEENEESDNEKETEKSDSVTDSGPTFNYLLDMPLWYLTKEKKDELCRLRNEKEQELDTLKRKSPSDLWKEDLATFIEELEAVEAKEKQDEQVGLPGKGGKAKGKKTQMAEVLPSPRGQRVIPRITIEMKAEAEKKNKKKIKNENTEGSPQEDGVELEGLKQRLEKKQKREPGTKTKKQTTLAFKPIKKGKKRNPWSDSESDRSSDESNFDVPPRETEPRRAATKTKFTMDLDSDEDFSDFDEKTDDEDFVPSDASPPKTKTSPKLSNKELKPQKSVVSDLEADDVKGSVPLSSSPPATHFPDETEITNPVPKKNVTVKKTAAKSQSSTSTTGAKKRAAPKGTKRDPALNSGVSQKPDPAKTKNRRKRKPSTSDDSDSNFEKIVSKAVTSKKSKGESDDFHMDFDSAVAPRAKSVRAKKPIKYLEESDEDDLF
# [2] = target: T1, DNA topoisomerase 2-alpha; assay: Inhibition of human topoisomerase 2-alpha assessed as reduction in relaxation of pBR322 DNA at 25 uM measured after 30 mins by agarose gel electrophoresis method relative to control
# HepG2 = assay: Antiproliferative activity against human HepG2 cells incubated for 72 hrs by CCK8 assay; type: functional, cell-based; conditions: Homo sapiens, HepG2, 72 h
Compound,pIC50 (MDA-MB-231),inhibition [1],inhibition [2],pIC50 (HepG2)
O=C(/C=C/c1cc(/C=C/c2cc(O)cc(O)c2)ccc1O)N1CCCCC1,4.78,84.5%,7.1%,4.52
Oc1cc(O)cc(/C=C/c2cc(-c3ccsc3)ccc2O)c1,5.02,88.4%,75.2%,5.09
CNC(=O)/C=C/c1ccc(/C=C/c2cc(O)cc(O)c2)cc1,,29.7%,2.3%,
Oc1ccc(-c2cc(/C=C/c3cc(O)cc(O)c3)ccc2O)cc1,4.41,64%,17.6%,
C/C=C/C(=O)Nc1cc(/C=C/c2cc(O)cc(O)c2)ccc1O,4.68,9.9%,0.2%,4.49
Oc1cc(O)cc(/C=C/c2ccc(O)c(-c3cccc(O)c3)c2)c1,4.37,72.1%,34.5%,
CN(C)C(=O)/C=C/c1ccc(/C=C/c2cc(O)cc(O)c2)cc1,4.70,47.8%,0.1%,
O=C(/C=C/c1ccc(/C=C/c2cc(O)cc(O)c2)cc1)N1CCCCC1,5.24,71.1%,6.9%,4.85
C/C=C/C(=O)Nc1ccc(/C=C/c2cc(O)cc(O)c2)cc1,5.42,12.5%,0.4%,5.34
Oc1ccc(-c2ccc(/C=C/c3cc(O)cc(O)c3)cc2)cc1,5.11,83.8%,57.1%,4.97
CCCNC(=O)/C=C/c1cc(/C=C/c2cc(O)cc(O)c2)ccc1O,,59.6%,1.7%,
Oc1cc(O)cc(/C=C/c2ccc(-c3ccsc3)cc2)c1,4.72,78.5%,63.2%,4.50
Oc1cc(O)cc(/C=C/c2ccc(O)c(-c3ccsc3)c2)c1,4.65,86.8%,15.2%,4.47
Oc1cc(O)cc(/C=C/c2ccc(-c3ccccc3)cc2)c1,4.98,81.2%,12.2%,4.74
Oc1cc(O)cc(/C=C/c2ccc(O)c(-c3ccccc3)c2)c1,4.37,87.2%,10.5%,
Oc1ccc(-c2ccc(O)c(/C=C/c3cc(O)cc(O)c3)c2)cc1,4.81,86.3%,75.4%,4.52

Compound,pIC50 (MDA-MB-231),inhibition [1],inhibition [2],pIC50 (HepG2)
Oc1cc(O)cc(/C=C/c2ccc(-c3cccc(O)c3)cc2)c1,4.95,82.9%,63.2%,4.74
Oc1cc(O)cc(/C=C/c2ccc(-c3ccoc3)cc2)c1,4.56,66.1%,30.4%,4.61
CNC(=O)/C=C/c1cc(/C=C/c2cc(O)cc(O)c2)ccc1O,,45%,2.4%,
C/C=C/C(=O)Nc1ccc(O)c(/C=C/c2cc(O)cc(O)c2)c1,,52.7%,0.6%,
Oc1cc(O)cc(/C=C/c2ccc(O)c(-c3ccoc3)c2)c1,4.58,77.4%,12.6%,4.43
Oc1cc(O)cc(/C=C/c2cc(-c3cccc(O)c3)ccc2O)c1,4.51,90.7%,79.3%,4.54
Oc1ccc2cc(-c3ccc(Cl)cc3Cl)cnc2c1,4.78,,,
O=[N+]([O-])c1cccc(-c2ccc(/C=C/c3cc(O)cc(O)c3)cc2)c1,4.94,68.7%,55.3%,4.79
CCCNC(=O)/C=C/c1ccc(/C=C/c2cc(O)cc(O)c2)cc1,5.11,65.9%,26.8%,4.63
O=C(/C=C/c1ccccc1)Nc1ccc(O)c(/C=C/c2cc(O)cc(O)c2)c1,4.61,98.1%,61.5%,
NC(=O)/C=C/c1ccc(O)c(/C=C/c2cc(O)cc(O)c2)c1,,76.6%,18.4%,
COc1ccc2nc(-c3ccc(N)cc3)sc2c1,4.43,,,
NC(=O)/C=C/c1ccc(/C=C/c2cc(O)cc(O)c2)cc1,,29.8%,3.9%,
CNC(=O)/C=C/c1ccc(O)c(/C=C/c2cc(O)cc(O)c2)c1,,63.5%,1.2%,
O=C(/C=C/c1ccc(O)c(/C=C/c2cc(O)cc(O)c2)c1)N1CCCCC1,4.70,91.3%,18.3%,
O=[N+]([O-])c1cccc(-c2cc(/C=C/c3cc(O)cc(O)c3)ccc2O)c1,4.48,93.6%,97.1%,

# Now from value to compound:
pIC50 (MDA-MB-231),inhibition [1],inhibition [2],pIC50 (HepG2),Compound
,9.7%,,,O=C(CCc1ccccc1)Nc1ccc(-c2cnc3cc(O)ccc3c2)cc1
4.92,1.2%,,5.46,COc1cc(CCc2ccc(NC(=O)CCc3ccccc3)cc2)cc(OC)c1
4.92,86.8%,7.5%,5.40,O=C(CCc1ccccc1)Nc1ccc(-c2nc3ccc(O)cc3s2)cc1
4.66,0.04%,,,COc1cc(CCc2ccc(NC(=O)/C=C/c3ccccc3)cc2)cc(OC)c1
,36.7%,0%,,COc1ccc2nc(-c3ccc(NC(=O)/C=C/c4ccccc4)cc3)sc2c1
4.47,62.5%,16.4%,4.84,O=C(CCc1ccccc1)Nc1ccc(/C=C/c2cc(O)cc(O)c2)cc1
,2.1%,,,COc1cc(OC)cc(C(=O)Nc2ccc(NC(=O)/C=C/c3ccccc3)cc2)c1
,67.2%,27.1%,4.44,O=C(/C=C/c1ccccc1)Nc1ccc(NC(=O)c2cc(O)cc(O)c2)cc1
5.14,0.2%,,4.96,COc1cc(/C=C/c2ccc(NC(=O)CCc3ccccc3)cc2)cc(OC)c1
4.80,87.4%,43.2%,5.28,O=C(/C=C/c1ccccc1)Nc1ccc(-c2nc3ccc(O)cc3s2)cc1
,3.7%,,,COc1cc(OC)cc(C(=O)Nc2ccc(NC(=O)CCc3ccccc3)cc2)c1
,0.1%,,,COc1ccc2cc(-c3ccc(NC(=O)/C=C/c4ccccc4)cc3)ccc2c1
4.68,19.7%,0%,,COc1ccc2cc(-c3ccc(NC(=O)CCc4ccccc4)cc3)cnc2c1
4.40,0.1%,,4.43,COc1ccc2cc(-c3ccc(NC(=O)/C=C/c4ccccc4)cc3)cnc2c1
,54.5%,4.1%,,O=C(CCc1ccccc1)Nc1ccc(NC(=O)c2cc(O)cc(O)c2)cc1
,15.3%,0.1%,,COc1cc(/C=C/c2ccc(NC(=O)/C=C/c3ccccc3)cc2)cc(OC)c1
5.34,9.1%,,5.54,O=C(CCc1ccccc1)Nc1ccc(CCc2cc(O)cc(O)c2)cc1
,82.3%,55.4%,,O=C(/C=C/c1ccccc1)Nc1ccc(-c2cnc3cc(O)ccc3c2)cc1
,0%,,,COc1ccc2nc(-c3ccc(NC(=O)CCc4ccccc4)cc3)sc2c1
5.38,11.3%,,5.55,O=C(/C=C/c1ccccc1)Nc1ccc(CCc2cc(O)cc(O)c2)cc1
,0%,,,COc1ccc2cc(-c3ccc(NC(=O)CCc4ccccc4)cc3)ccc2c1

# — ChEMBL document CHEMBL5352412, “Discovery of 1,2-diphenylethene derivatives as human DNA topoisomerase II catalytic inhibitors and antitumor agents” (Eur J Med Chem, 2022)
